{"source": "patent US9814623B2", "about": "“Antimicrobial gas impregnating devices and methods” (ENOX (ISRAEL) LTD., priority 2007, dated 2017)", "origin": "cited, not measured here", "key": {"Staphylococcus aureus": {"test_system": "Staphylococcus aureus", "settings": "exogenous gNO at 200 ppm for extended periods of time"}, "Escherichia coli": {"test_system": "Escherichia coli", "settings": "exogenous gNO at 200 ppm for extended periods of time"}, "Group B Streptococcus": {"test_system": "Group B Streptococcus", "settings": "exogenous gNO at 200 ppm for extended periods of time"}, "Pseudomonas aeruginosa": {"test_system": "Pseudomonas aeruginosa", "settings": "exogenous gNO at 200 ppm for extended periods of time"}, "Candida albicans": {"test_system": "Candida albicans", "settings": "exogenous gNO at 200 ppm for extended periods of time"}, "[1]": {"test_system": "cultured human dermal fibroblasts", "settings": "exogenous gNO at 200 ppm for extended periods of time"}, "[2]": {"test_system": "nosocomial pneumonia caused by microbial pathogens such as S. aureus and P. aeruginosa", "settings": "exogenous gNO at 200 ppm"}, "[3]": {"test_system": "infections after tympanostomy tube placement", "settings": "otic drops after tympanostomy tube placement"}}}
{"molecule": "[N]=O", "note": "[gNO, nitric oxide]", "values": [{"measurement": "growth of Staphylococcus aureus", "setting": "Staphylococcus aureus", "result": "inhibited and prevented the growth"}, {"measurement": "growth of Escherichia coli", "setting": "Escherichia coli", "result": "inhibited and prevented the growth"}, {"measurement": "growth of Group B Streptococcus", "setting": "Group B Streptococcus", "result": "inhibited and prevented the growth"}, {"measurement": "growth of Pseudomonas aeruginosa", "setting": "Pseudomonas aeruginosa", "result": "inhibited and prevented the growth"}, {"measurement": "growth of Candida albicans", "setting": "Candida albicans", "result": "inhibited and prevented the growth"}, {"measurement": "cytotoxic effects on cultured human dermal fibroblasts", "setting": "[1]", "result": "without any cytotoxic effects"}, {"measurement": "time to clear nosocomial pneumonia pathogens", "setting": "[2]", "result": "about 6 hours"}]}
{"molecule": "Gentamicin", "values": [{"measurement": "incidence of infection", "setting": "[3]", "result": "significantly reduced"}]}
